Values of other authors in publication PMC9098912, “Molecular basis for inhibiting human glucose transporters by exofacial inhibitors” (Nature Communications, 2022).

Key:
[1] = test system: GLUT3; design: method as in PMID 12792024; conditions: cited from earlier work
[2] = test system: GLUT1; design: method as in Siebeneicher et al., 2016; conditions: SAR of Bayer compounds; ref Siebeneicher et al., 2016; cited from earlier work
[3] = test system: GLUT1/3 over GLUT2; design: method as in Siebeneicher et al., 2016; conditions: ref Siebeneicher et al., 2016; cited from earlier work

SMILES	GLUT3 inhibition [1]	GLUT1 potency [2]	Selectivity [3]
C=CCCCCCCCCCO[C@H]1[C@H](O)[C@@H](CO)OC(O)[C@@H]1O (stereo partly drawn) [C3361]	weak inhibitor		
COc1ccc(F)cc1N1CCN(c2ncnc3c2cnn3-c2ccccc2)CC1 [cmpd 15]		favors GLUT1 association	selective inhibition to GLUT1/3 over GLUT2
